The results in this text go back to article PMC9969401, “Discovery of 2-(3-Benzamidopropanamido)thiazole-5-carboxylate Inhibitors of the Kinesin HSET (KIFC1) and the Development of Cellular Target Engagement Probes” (Journal of Medicinal Chemistry, 2023).

Each structure is given as a SMILES string.

In assay [1] the target is T1, full-length HSET (FL HSET) (Homo sapiens, UniProt Q9BW19).
T1 construct: 5 nM full-length human N-terminal His-tag HSET; His-tag (N)
T1 sequence (Q9BW19 1-673): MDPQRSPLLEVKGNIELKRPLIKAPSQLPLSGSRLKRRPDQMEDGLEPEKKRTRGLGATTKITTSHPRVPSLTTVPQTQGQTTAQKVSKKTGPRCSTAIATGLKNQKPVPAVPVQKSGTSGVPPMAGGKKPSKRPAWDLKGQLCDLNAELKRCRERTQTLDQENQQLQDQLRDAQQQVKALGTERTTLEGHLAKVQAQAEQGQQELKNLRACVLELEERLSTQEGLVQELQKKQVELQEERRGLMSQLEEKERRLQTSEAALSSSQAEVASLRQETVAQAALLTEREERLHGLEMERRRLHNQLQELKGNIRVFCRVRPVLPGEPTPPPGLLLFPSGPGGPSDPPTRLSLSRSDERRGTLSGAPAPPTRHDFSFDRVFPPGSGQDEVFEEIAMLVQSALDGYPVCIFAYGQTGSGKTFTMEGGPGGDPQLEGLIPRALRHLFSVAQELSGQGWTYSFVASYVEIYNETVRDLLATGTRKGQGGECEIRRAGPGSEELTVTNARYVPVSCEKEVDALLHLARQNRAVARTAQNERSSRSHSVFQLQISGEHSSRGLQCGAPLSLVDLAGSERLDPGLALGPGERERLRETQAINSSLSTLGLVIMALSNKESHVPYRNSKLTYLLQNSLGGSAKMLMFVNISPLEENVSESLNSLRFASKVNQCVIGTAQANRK
Put plainly: Competitive binding fluorescence polarization assay (displacement of probe 37). Conditions: 400 nM FL HSET, 2.5 nM probe 37; read-out: IC50, displacement of FP probe 37 from FL HSET. On the procedure: (§1) Steady-state fluorescence polarization binding assays were performed using the fluorescence-tagged probe 37. All assays were performed in a black ProxiPlate-384 Plus plate (PerkinElmer, 6008260) in a 10 μL volume in buffer containing 20 mM HEPES pH 7.5, 200 mM NaCl, 1 mM TCEP, 10 mM MgCl2, 0.1 mM Triton X-100, and 5% glycerol (v/v). Full-length human N-terminal His-tag HSET was used, with a final concentration of 2.5 nM 37 probe. The assays were sealed and incubated in the dark at 25 °C and then the FP signal was read on an EnVision multimode plate reader (PerkinElmer Life Sciences) using excitation at 620 nm and parallel and perpendicular emissions at 688 nm. All data processing was done using Prism (GraphPad Software).
For the competition assays, 100 nL of compound dissolved in DMSO or DMSO alone was added to create 11 pt concentration response curves between 100 and 0.001 μM final concentrations. This assay used 400 nM FL HSET, and the plate was read after 2 h of incubation in the dark at 25 °C. IC50 values were determined as for the ATPase assay using a four-parameter statistical logistic curve fit.

Assay [2] concerns the target T2, recombinant full-length HSET (Homo sapiens, UniProt Q9BW19).
T2 construct: 5 nM full-length human N-terminal His-tag HSET; His-tag (N)
T2 sequence (Q9BW19 1-673): T1 sequence (Q9BW19 1-673)
Put plainly: ADP-Glo HSET assay (3 μM ATP), microtubule-stimulated ATPase. It counts as biochemical. Conditions: preformed microtubules, 3 μM ATP; mean (±SD) n ≥ 3 (37 n = 2, 38 single determination) (Table 3); read-out: HSET ADP-Glo IC50. The method in brief: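 His-tagged full-length HSET (5 nM) or GST-Eg5 motor domain (4 nM), with 70 μg/mL paclitaxel-stabilised microtubules in HEPES pH 6.8 buffer, was preincubated with compound for 10 min. ATP was then added (3 or 500 μM for HSET, 4.8 μM for Eg5), followed by 80 min at 25 °C and ADP-Glo luminescence. IC50 was fitted with a four-parameter logistic.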

Assay [3] has as its target T1, full-length HSET (FL HSET). Put plainly: Fluorescence polarization probe Kd determination. It counts as binding. On the procedure: as §1
For the probe Kd determinations, FL HSET final concentrations were used between 2000 and 0.5 nM. When present, preformed microtubules (Universal Biologicals Cambridge, bovine MT001-XL or porcine MT002-XL), which were reconstituted in 15 mM PIPES pH 7, 20 μM paclitaxel, or reconstitution buffer alone, were preincubated with HSET for 10 min and then added to the probe. The plate was read after 3 h of incubation in the dark at 25 °C. Kd values were determined using a 1:1 site binding model of the fluorescence polarization versus protein concentration.

For `Nc1ncnc2c1ncn2[C@@H]1O[C@H](COP(=O)(O)OP(=O)(O)O)[C@@H](O)[C@H]1O` [ADP, adenosine diphosphate], the IC50 in assay [1] was 400 ± 66 nM.

Take `CCCOC(=O)c1sc(NC(=O)C[C@H](CCCNC(=O)CCCCC[N+]2=C(/C=C/C=C/C=C3/N(C)c4ccc(S(=O)(=O)O)cc4C3(C)C)C(C)(C)c3cc(S(=O)(=O)O)ccc32)NC(=O)c2cccc(-c3noc(C)n3)c2)nc1C` [Compound 37, 3,3-Dimethyl-1-(6-(((S)-4-(3-(5-methyl-1,2,4-oxadiazol-3-yl)benzamido)-6-((4-methyl-5-(propoxycarbonyl)thiazol-2-yl)amino)-6-oxohexyl)amino)-6-oxohexyl)-5-sulfo-2-((1E,3E)-5-((E)-1,3,3-trimethyl-5-sulfoindolin-2-ylidene)penta-1,3-dien-1-yl)-3H-indol-1-ium]: in assay [2], the IC50 was found to be 257 nM. In addition, the Kd in assay [3] (FL HSET + MT buffer only) is 675 ± 148 nM; in assay [3] (isolated full-length HSET, no microtubules), 371 nM. On to `Nc1ncnc2c1ncn2[C@@H]1O[C@H](COP(=O)(O)OP(=O)(O)OP(=O)(O)O)[C@@H](O)[C@H]1O` [ATP, adenosine 5′-triphosphate], for which the IC50 in assay [1] was determined as 436 ± 56 nM.
